One test has as its system amyloid. The test can be described thus: Labelling / staining of amyloid deposits. Type of test: binding.
The test system of the next test is tangle fragments. Put plainly: Competitive binding assay: displacement of primulin fluorescence from tangle fragments (ifI). More on the design: species or system human. The conditions noted are these: for competition with / displacement of other ligands at tangles: fluorescence end point. The procedure: IfI material was homogenised in a 0.2 ml glass homogeniser in PBS. To the suspension, test compounds were added to final concentrations ranging from 0.1% to 0.00001%. […] The suspensions were transferred to a glass slide, and examined by fluorescence microscopy across a range of fluorescence filter blocks, covering excitation and emission wavelengths between 380 nm and 570 nm. The end point sought in these observations was displacement of typical primulin fluorescence from tangle fragments.

The target in another test is T1, tau-tau binding (Homo sapiens, UniProt P10636).
T1 construct: a truncated tau protein corresponding to the core fragment and terminating at Ala390-dGA; dGAE which terminates at Glu-391; made in house; host or cells: E. coli BL21 (DE3), pRK172; DE52 flow-through, P11 phosphocellulose, PEG concentration, no heat step (Preparation 2)
T1 sequence (P10636 614-708 limits assumed): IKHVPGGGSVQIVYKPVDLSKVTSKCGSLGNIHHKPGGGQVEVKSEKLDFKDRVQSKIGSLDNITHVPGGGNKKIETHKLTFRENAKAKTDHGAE
The test can be described thus: Solid-phase tau-tau binding assay (dGA solid phase, dGAE liquid phase), tau Preparation 2. The test is classed as biochemical. To be noted: for tau-tau binding relative to that seen in the absence of DMMB: tau typically 1 μM. The procedure: Preparation 2 differs from Preparation 1 above in the following respects: (1) The concentration of cells at the sonication stage is increased by 5-fold. (2) A batchwise adsorption of non-tau proteins to DE52 is included. (3) The proteins are not subjected to heat treatment. (4) The final step involves concentration using polyethylene glycol.
Escherichia coli is grown in 2×TY medium (Oxoid) supplemented with ampicillin (50 micrograms per ml) to late-logarithmic phase. Cells from 5 liters of culture are harvested by centrifugation and the cell pellets frozen rapidly over liquid nitrogen. The pellets are taken up with 50 mM PIPES (pH 6.8) containing 1 mM EDTA, 1 mM dithiothreitol and 1 mM phenylmethylsulphonylfluoride (PMSF) and bacteria lysed by sonication (2×3 min) at 4 C. The mixture is centrifuged at 10,000 rpm for 20 min. The supernatant is rotated with 1 gram of Whatman DE52 for 3 hr at 4 C. The mixture is separated on a column and the flow-through material that fails to bind to DE52 is incubated for 3 hr at 4 C, with rotation, with 0.4 g of Whatman P11 (freshly regenerated according to manufacturer's recommendations). The column is washed with column buffer (50 mM PIPES, pH 6.8 containing 1 mM EGTA, 5 mM EDTA, 0.2 mM MgCl2, 5 mM β-mercaptoethanol and 1 mM PMSF). Tau protein is eluted stepwise with a 0.1 to 1 M gradient of KCl in column buffer. Fractions containing tau (determined by immunoassay) are pooled and dialysed against 80 mM PIPES (pH6.8) containing 1 mM EGTA, 1 mM MgCl2 and 5 mM β-mercatoethanol, using dialysis tubing with a molecular weight cut-off of 1,000. The dialysate is concentrated by applying polyethylene glycol 8000 to the outside of the sac for 2-3 hr. The final concentration of tau ranged from 3 to 10 mg per ml.
When the proteins dGA and dGAE were prepared as indicated above (“Preparation 2”), the properties of the tau-tau binding assay were altered relative to the properties obtained using the preparative method described in WO96/30766 (“Preparation 1”).
The assay is performed using 96 well PVC plates (Falcon Cat. No. 353912 are used), and the following steps:
1. 50 μl dGA (˜10 μg/ml) in carbonate buffer, incubate 1 h at 37° C.
(Carbonate buffer: 50 mM carbonate bicarbonate, pH 9.6 (Na2CO3 1.59 g/l, NaHCO3 2.93 g/l))
2. Wash plate in 0.05% Tween-20.
3. 200 μl PBS+2% Marvel, incubate 1 h at 37° C.
4. Rinse plate 2× in deionised water, then wash in 0.05% Tween-20.
5. 50 μl dGAE (˜10 μg/ml) plus drug in PBS+1% fish skin gelatin+0.05% Tween-20, incubate 1 h at 37° C.
6. Wash plate in 0.05% Tween-20.
7. 50 μl antibody 423 (1:10 dilution in PBS+2% Marvel), incubate 1 h at 37° C.
8. Rinse plate 2× in deionised water, then wash in 0.05% Tween-20.
9. 50 μl HRP-anti-mouse (1:1000 dilution in PBS+0.05% Tween-20), incubate 1 h at 37° C.
10. Wash plate in 0.05% Tween-20, then rinse 1× with deionised water.
11. 50 μl substrate solution, read immediately initial rate over 2 min in plate reader at OD650.
(Substrate solution: 50 mM sodium acetate, pH 5.0+TMB (1 ml/100 ml of a 10 mg/ml solution in DMSO)+H2O2 (10 μl/100 ml)).

The subject of another test is isolated PHFs. Put plainly: Ligand electronmicroscopy of Pronase-digested PHFs (gold-conjugated anti-biotin antibody). The test is classed as binding. Here is the method:
(§1) In ifI suspensions such as this, tangles can be seen by blue fluorescence which is […] from that associated with binding of contaminants in the preparation. […] (a) Chemical labelling with the biotinylated benzothiazole analogue shown as 4b in FIG. 4. PHFs were deposited on a carbon-coated grid after Pronase digestion, and incubated briefly with compound 4b, and then incubated with an anti-biotin antibody preparation that had been conjugated with colloidal gold. […] (b) mAb 423 immunolabelling of isolated PHFs after Pronase digestion., followed by incubation with a gold-conjugated goat anti-mouse second antibody as described in Novak et al. 1993 (Novak M, Kabat J, Wischik C M (1993) “Molecular characterisation of the minimal protease-resistant tau unit of the Alzheimers' disease paired helical filament”, EMBO J. 12: 365-370). As shown in this paper, mAb 423 labels PHFs derived from intracellular tangles (which preserve N-terminal tau immunoreactivity in the fuzzy outer coat) poorly, but Pronase digested PHFs strongly.
PHFs derived from an ifI fraction were deposited on a carbon coated grid after pronase digestion, and incubated briefly with a preparation of biotinylated Primulin, and then incubated with an anti-biotin antibody that has been conjugated with colloidal gold by the method of Slot and Gueze (1981).

A further test deals with PHFs. The test can be described thus: Spectrofluorometry of primulin in solution and bound to PHFs (ifII). Type of test: binding. The conditions noted are these: PHFs with bound primulin treated with the substance. The procedure: These measurements were carried out in a Perkin-Elmer spectrofluorimeter (model MPF-3). A concentration of ligand of 0.00001% was routinely used for all measurements. […] All measurements were therefore carried out at a standard excitation wavelength of 370 nm, and a constant slit width of 3 mm.
Further investigations into the relationship between aggregation-dependent tau ligands and tau aggregation inhibitors were carried out using primulin. Primulin in solution has a fluorescence peak at 520 nm. This shifts to 470 nm when primulin is bound within a pure preparation of PHFs (FIG. 6). […] Therefore, binding by such compounds is dependent on the polymerised state of tau found in the PHF, but is not present in free tau.
Compounds have been identified which disrupt the structure of the PHF and reverse the proteolytic stability of the PHF core (see WO 96/30766). Examples of such compounds are shown in accompanying FIG. 8. The present inventors have now identified that these compounds bind to tau at a specific binding site within the high affinity tau-tau binding domain.

A further test concerns neurofibrillary tangles. The test can be described thus: Fluorescence labelling of tangles (sections, ifI tangle suspensions). Type of test: binding, human. The procedure:
as §1
Serial 16 μm sections are cut from the hippocampus of a case dying with clinically and neuropathologically confirmed AD. […]
A Leitz fluorescence microscope fitted with a photo-multiplyer tube (Model MPV-2) was used to quantitate fluorescence emission. […]

Entries after “also recorded” stand apart in the source; their conditions may differ. Like-named read-outs stand apart in the source and are kept apart here.

Regarding “2-(4-amino phenyl)-6-methyl-1-sulphonate benzothiazole [compound 2]”, in the test on amyloid, the “displaced from amyloid by primulin” value was “not amyloid” and the “labelling / staining of amyloid” value was “bind preferentially to amyloid”. Besides, the “displaced from tangles by primulin (SB-ligand)” value with tangle fragments is “displaced from NFTs; also recorded: displace this from tangles”.

For `Cc1cc(=[N+](C)C)cc2sc3cc(N(C)C)cc(C)c3nc1-2.[Cl-]` [DMMB, dimethyl methylene blue], the “inhibitory potency in Preparation 2 compared with Preparation 1” value at tau-tau binding was “higher inhibitory potency in Preparation 2 than in Preparation 1”. The figures for the “tau-tau binding relative to that seen in the absence of DMMB” value at tau-tau binding (DMMB 5 μM) and on tau-tau binding (DMMB 15 μM) were 23% and 17%, respectively.

Consider `O=C(O)CCCC[C@@H]1SC[C@@H]2NC(=O)N[C@@H]21` [biotin], for which the “immunogold anti-biotin labelling of isolated PHFs after pre-incubation” value with isolated PHFs is “no labelling”.

`CC1=CC(=O)OC1=O` [citraconic anhydride]: the “effect on PHF-bound primulin fluorescence peak” value in the test on PHFs was “disrupting the orderly structure of PHFs and releasing free tau and free unbound primulin; also recorded: abolish the 470 nm fluorescence peak”.

`Cc1ccc2sc(-c3ccc(N=Nc4ccccc4O)cc3)nc2c1S(=O)(=O)[O-].[Na+]` [compound 4a]: in the test on tangle fragments, the activity as ligand result is “active ligands”; the “competition with / displacement of other ligands at tangles” value (“competition with / displacement” below) is “compete out thiazin red and primulin fluorescence at equivalent concentrations”.

Consider `Cc1ccc2sc(-c3ccc(N=Nc4cc(CCC(=O)ON5C(=O)CCC5=O)ccc4O)cc3)nc2c1S(=O)(=O)[O-].[Na+]` [compound 4b], for which, in the test with isolated PHFs, the “immunogold anti-biotin labelling of isolated PHFs after pre-incubation” value was “binds to the proteolytically stable PHF structure; also recorded: label isolated PHFs”. For the same compound, in the test with tangle fragments, the “competition with / displacement” value was “compete primulin and thiazin red”.

Take `Cc1ccc2sc(-c3ccc(N=NNc4ccc(-c5nc6c(S(=O)(=O)[O-])c(C)ccc6s5)cc4)cc3)nc2c1S(=O)(=O)[O-].[Na+].[Na+]` [thiazin yellow]: in the test on tangle fragments, the activity as ligand entry was “inactive as a ligand; also recorded: does not serve as an effective ligand” and the “competition with / displacement” value was “did not”.

With `Cc1ccc2c(c1)sc(-c1ccc(N(C)C)cc1)[n+]2C.[Cl-]` [thioflavin-T], the “labelling / staining of amyloid” value in the test on amyloid is reported as “labelled amyloid preferentially; also recorded: strongly stain amyloid deposits”; in the test with amyloid (listed as 1b) it was “bind preferentially to amyloid”. The labelling of tangles entry in the test on neurofibrillary tangles was “barely visible tangle; also recorded: much less effective”. Moreover, the “displaced from tangles by primulin (SB-ligand)” value in the test with tangle fragments is “displaced by yellow tangle fluorescence produced by primulin; also recorded: can be displaced from tangles by primulin”; in the test with tangle fragments (listed as 1b) it was “displaced from NFTs”; in the test with tangle fragments (listed as compound 1b) it was “displace compound 1b at tangles”.

For the compound alcian blue, in the test on PHFs, the “effect on PHF-bound primulin fluorescence peak” value is given as “no disturbance of the characteristic bound primulin fluorescence peak; also recorded: retention of the fluorescence peak of primulin at 470 nm”.

For the origin of these results see patent US8097615B2, “Neurofibrillary labels” (Wista Laboratories Ltd., priority 2001, dated 2012).
